# PubChem BioAssay AID342 (DTP/NCI, 2004)
# Values joined by “and” are separate entries in the source; they are usually repeats but may differ in a detail not shown here. Equal values may be shown once.
# Tested on: Swiss mice, Sarcoma 180 sc, mean tumor weight T/C
# Test: NCI In Vivo Anticancer Drug Screen. Data for tumor model Sarcoma 180 (subcutaneous) in Swiss mice
# Settings: endpoint: mean tumor weight, higher = larger tumour
# Method in brief: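 Readout is the ratio of treated-group measurement to vehicle-control measurement (T/C), based on survival or tumor size in mice carrying transplanted tumors.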
# [1] = dose: 10.0 mg/kg/injection, schedule: Q01DX007 (ip), vehicle: carboxymethylcellulose (CMC)
smiles,measurement,setting,value
CCOC(N)=O,T/C,"dose: 62.5 mg/kg/injection, schedule: Q#A X014 (ip), vehicle: carboxymethylcellulose (CMC)",103 % of control
same,T/C,"dose: 85.38 mg/kg/injection, schedule: Q01DX007 (ip), vehicle: carboxymethylcellulose (CMC)",56 % of control
same,T/C,"dose: 112.5 mg/kg/injection, schedule: Q01DX007 (ip), vehicle: carboxymethylcellulose (CMC)",53 % of control
same,T/C,"dose: 125.0 mg/kg/injection, schedule: Q#A X014 (ip), vehicle: carboxymethylcellulose (CMC)",85 % of control
same,T/C,"dose: 170.75 mg/kg/injection, schedule: Q01DX007 (ip), vehicle: carboxymethylcellulose (CMC)",64 % of control
same,T/C,"dose: 225.0 mg/kg/injection, schedule: Q01DX007 (ip), vehicle: carboxymethylcellulose (CMC)",42 % of control
same,T/C,"dose: 225.0 mg/kg/injection, schedule: Q#A X014 (ip), vehicle: carboxymethylcellulose (CMC)",113 % of control
same,T/C,"dose: 250.0 mg/kg/injection, schedule: Q#A X014 (ip), vehicle: carboxymethylcellulose (CMC)",77 % of control
same,T/C,"dose: 273.2 mg/kg/injection, schedule: Q01DX007 (ip), vehicle: carboxymethylcellulose (CMC)",55 % of control
same,T/C,"dose: 300.0 mg/kg/injection, schedule: Q#A X014 (ip), vehicle: carboxymethylcellulose (CMC)",73 % of control
same,T/C,"dose: 316.0 mg/kg/injection, schedule: Q01DX007 (ip), vehicle: carboxymethylcellulose (CMC)",67 % of control
same,T/C,"dose: 341.5 mg/kg/injection, schedule: Q01DX007 (ip), vehicle: carboxymethylcellulose (CMC)",37 % of control and 46 % of control
same,T/C,"dose: 395.0 mg/kg/injection, schedule: Q01DX007 (ip), vehicle: carboxymethylcellulose (CMC)",54 % of control
same,T/C,"dose: 450.0 mg/kg/injection, schedule: Q01DX007 (ip), vehicle: carboxymethylcellulose (CMC)",53 % of control
same,T/C,"dose: 455.33 mg/kg/injection, schedule: Q01DX007 (ip), vehicle: carboxymethylcellulose (CMC)",62 % of control
same,T/C,"dose: 500.0 mg/kg/injection, schedule: Q#A X014 (ip), vehicle: carboxymethylcellulose (CMC)",24 % of control
same,T/C,"dose: 526.6 mg/kg/injection, schedule: Q01DX007 (ip), vehicle: carboxymethylcellulose (CMC)",40 % of control
same,T/C,"dose: 683.0 mg/kg/injection, schedule: Q01DX007 (ip), vehicle: carboxymethylcellulose (CMC)",21 % of control and 44 % of control
same,T/C,"dose: 900.0 mg/kg/injection, schedule: Q01DX007 (ip), vehicle: carboxymethylcellulose (CMC)",23 % of control
CC1=C(CO)C(=O)O[C@@H]([C@@H](C)[C@H]2CC[C@H]3[C@@H]4C[C@H]5O[C@]56[C@@H](O)C=CC(=O)[C@]6(C)[C@H]4CC[C@]23C)C1,T/C,[1],64 % of control
same,T/C,"dose: 13.3 mg/kg/injection, schedule: Q01DX007 (ip), vehicle: saline",97 % of control
same,T/C,"dose: 13.7 mg/kg/injection, schedule: Q01DX007 (ip), vehicle: saline",85 % of control
same,T/C,"dose: 16.0 mg/kg/injection, schedule: Q01DX007 (ip), vehicle: saline",77 % of control
same,T/C,"dose: 16.0 mg/kg/injection, schedule: Q01DX007 (sc), vehicle: olive oil, sesame oil, peanut oil",90 % of control
same,T/C,"dose: 16.0 mg/kg/injection, schedule: Q01DX007 (sc), vehicle: steriod suspending solution",93 % of control
same,T/C,"dose: 18.0 mg/kg/injection, schedule: Q01DX007 (ip), vehicle: saline",60 % of control
same,T/C,"dose: 24.0 mg/kg/injection, schedule: Q01DX007 (ip), vehicle: saline",54 % of control
same,T/C,"dose: 24.0 mg/kg/injection, schedule: Q01DX007 (sc), vehicle: olive oil, sesame oil, peanut oil",109 % of control
same,T/C,"dose: 24.0 mg/kg/injection, schedule: Q01DX007 (sc), vehicle: steriod suspending solution",66 % of control
same,T/C,"dose: 33.0 mg/kg/injection, schedule: Q01DX007 (ip), vehicle: saline",25 % of control
same,T/C,"dose: 36.0 mg/kg/injection, schedule: Q01DX007 (sc), vehicle: olive oil, sesame oil, peanut oil",77 % of control
same,T/C,"dose: 36.0 mg/kg/injection, schedule: Q01DX007 (sc), vehicle: steriod suspending solution",79 % of control
Cc1cc(C)c(N)c(C)c1N,T/C,"dose: 187.5 mg/kg/injection, schedule: Q#A X014 (ip), vehicle: methylcellulose (MC)",48 % of control
Nc1cccc2c(=O)[nH][nH]c(=O)c12,T/C,"dose: 62.5 mg/kg/injection, schedule: Q01DX007 (ip), vehicle: water",119 % of control
same,T/C,"dose: 125.0 mg/kg/injection, schedule: Q01DX007 (ip), vehicle: water",118 % of control
same,T/C,"dose: 250.0 mg/kg/injection, schedule: Q01DX007 (ip), vehicle: water",61 % of control
same,T/C,"dose: 375.0 mg/kg/injection, schedule: Q01DX007 (ip), vehicle: water",85 % of control
COC(=O)c1[nH]c(=O)[nH]c(=O)c1F,T/C,"dose: 4.5 mg/kg/injection, schedule: Q01DX007 (ip), vehicle: carboxymethylcellulose (CMC)",78 % of control
same,T/C,"dose: 9.0 mg/kg/injection, schedule: Q01DX007 (ip), vehicle: carboxymethylcellulose (CMC)",44 % of control and 55 % of control
same,T/C,"dose: 14.0 mg/kg/injection, schedule: Q01DX007 (ip), vehicle: carboxymethylcellulose (CMC)",39 % of control and 51 % of control and 54 % of control
same,T/C,"dose: 21.0 mg/kg/injection, schedule: Q01DX007 (ip), vehicle: carboxymethylcellulose (CMC)",26 % of control
same,T/C,"dose: 31.0 mg/kg/injection, schedule: Q01DX007 (ip), vehicle: carboxymethylcellulose (CMC)",10 % of control and 14 % of control
same,T/C,"dose: 47.0 mg/kg/injection, schedule: Q01DX007 (ip), vehicle: carboxymethylcellulose (CMC)",5 % of control and 7 % of control and 12 % of control
CN(N=O)C(=O)Nc1c[nH]c(=O)[nH]c1=O,T/C,"dose: 25.0 mg/kg/injection, schedule: Q#A X014 (ip), vehicle: carboxymethylcellulose (CMC)",33 % of control
CC1CN1P(=O)(Oc1ccccc1)N1CC1C (stereo not drawn),T/C,"dose: 27.5 mg/kg/injection, schedule: Q#A X014 (ip), vehicle: saline",60 % of control and 67 % of control and 84 % of control
same,T/C,"dose: 62.5 mg/kg/injection, schedule: Q#A X014 (ip), vehicle: saline",13 % of control and 20 % of control
CS(=O)(=O)OCCCl,T/C,"dose: 6.67 mg/kg/injection, schedule: Q#A X014 (ip), vehicle: carboxymethylcellulose (CMC)",92 % of control
same,T/C,"dose: 13.35 mg/kg/injection, schedule: Q01DX007 (ip), vehicle: carboxymethylcellulose (CMC)",117 % of control
same,T/C,"dose: 13.35 mg/kg/injection, schedule: Q#A X014 (ip), vehicle: carboxymethylcellulose (CMC)",95 % of control
same,T/C,"dose: 26.7 mg/kg/injection, schedule: Q01DX007 (ip), vehicle: carboxymethylcellulose (CMC)",106 % of control
same,T/C,"dose: 26.7 mg/kg/injection, schedule: Q#A X014 (ip), vehicle: carboxymethylcellulose (CMC)",86 % of control
same,T/C,"dose: 53.4 mg/kg/injection, schedule: Q01DX007 (ip), vehicle: carboxymethylcellulose (CMC)",100 % of control
same,T/C,"dose: 106.8 mg/kg/injection, schedule: Q01DX007 (ip), vehicle: carboxymethylcellulose (CMC)",94 % of control
COc1cc([C@@H]2c3cc4c(cc3[C@H](O)[C@H]3COC(=O)[C@H]23)OCO4)cc(OC)c1OC,T/C,"dose: 0.45 mg/kg/injection, schedule: Q01DX007 (ip), vehicle: carboxymethylcellulose (CMC)",90 % of control
same,T/C,"dose: 0.9 mg/kg/injection, schedule: Q01DX007 (ip), vehicle: carboxymethylcellulose (CMC)",92 % of control
same,T/C,"dose: 175.0 micrograms/kg/injection, schedule: Q01DX007 (ip), vehicle: carboxymethylcellulose (CMC)",88 % of control
same,T/C,"dose: 350.0 micrograms/kg/injection, schedule: Q01DX007 (ip), vehicle: carboxymethylcellulose (CMC)",77 % of control
same,T/C,"dose: 1400.0 micrograms/kg/injection, schedule: Q01DX007 (ip), vehicle: carboxymethylcellulose (CMC)",71 % of control
Cc1cc(N)c2cc(NC(=O)/C=C\c3ccccc3Cl)ccc2n1,T/C,"dose: 11.0 mg/kg/injection, schedule: Q01DX007 (ip), vehicle: carboxymethylcellulose (CMC)",89 % of control
same,T/C,"dose: 17.0 mg/kg/injection, schedule: Q01DX007 (ip), vehicle: carboxymethylcellulose (CMC)",77 % of control
same,T/C,"dose: 25.0 mg/kg/injection, schedule: Q01DX007 (ip), vehicle: carboxymethylcellulose (CMC)",46 % of control
CC(=O)OCC1OC(n2cnc3c(=S)nc(N)[nH]c32)C(OC(C)=O)C1OC(C)=O (stereo not drawn),T/C,"dose: 3.0 mg/kg/injection, schedule: Q01DX007 (ip), vehicle: other",12 % of control
same,T/C,"dose: 3.0 mg/kg/injection, schedule: Q01DX007 (ip), vehicle: saline",64 % of control
same,T/C,"dose: 4.4 mg/kg/injection, schedule: Q01DX007 (ip), vehicle: other",6 % of control
same,T/C,"dose: 6.6 mg/kg/injection, schedule: Q01DX007 (ip), vehicle: carboxymethylcellulose (CMC)",43 % of control
same,T/C,"dose: 6.6 mg/kg/injection, schedule: Q01DX007 (ip), vehicle: other",18 % of control and 29 % of control
same,T/C,[1],28 % of control
same,T/C,"dose: 10.0 mg/kg/injection, schedule: Q01DX007 (ip), vehicle: other",51 % of control
same,T/C,"dose: 15.0 mg/kg/injection, schedule: Q01DX007 (ip), vehicle: carboxymethylcellulose (CMC)",9 % of control
same,T/C,"dose: 15.0 mg/kg/injection, schedule: Q01DX007 (ip), vehicle: other",6 % of control and 24 % of control
same,T/C,"dose: 22.0 mg/kg/injection, schedule: Q01DX007 (ip), vehicle: carboxymethylcellulose (CMC)",9 % of control
same,T/C,"dose: 22.0 mg/kg/injection, schedule: Q01DX007 (ip), vehicle: other",3 % of control and 10 % of control
same,T/C,"dose: 33.0 mg/kg/injection, schedule: Q01DX007 (ip), vehicle: other",11 % of control
